Reference: patent US7030242B2, “Selective inhibition of aggrecanase in osteoarthritis treatment” (Pfizer Inc, priority 1999, dated 2006)

Key:
[1] = target: T1, Human recombinant collagenase-1 (Homo sapiens, UniProt P03956); experiment: Inhibition of human collagenase-1 (recombinant collagenase-1 assay); assay type: biochemical; details: Table 2, read-out: MMP-1 (IC50 class)
T1 sequence (P03956 100-469): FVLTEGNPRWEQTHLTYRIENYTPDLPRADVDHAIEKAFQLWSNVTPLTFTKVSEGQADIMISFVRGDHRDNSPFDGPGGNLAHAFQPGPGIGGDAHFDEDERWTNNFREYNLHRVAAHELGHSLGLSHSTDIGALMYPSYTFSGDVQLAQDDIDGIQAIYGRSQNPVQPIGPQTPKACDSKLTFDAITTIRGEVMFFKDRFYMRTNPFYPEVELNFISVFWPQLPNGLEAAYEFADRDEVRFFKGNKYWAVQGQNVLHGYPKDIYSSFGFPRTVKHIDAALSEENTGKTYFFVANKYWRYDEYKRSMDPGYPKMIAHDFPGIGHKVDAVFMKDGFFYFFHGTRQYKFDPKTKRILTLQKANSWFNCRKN
Experimental: Inhibition of Human Collagenase-1 (Recombinant Collagenase-1 Assay)
This assay is used in the invention to measure the potency (IC50s) of compounds for collagenase-1.
Human recombinant collagenase-1 is activated with trypsin. The amount of trypsin is optimized for each lot of collagenase-1, but a typical reaction uses the following ratio: 5 mg trypsin per 100 mg of collagenase.
Stock solutions (10 mM) of inhibitors are made up in dimethylsulfoxide and then diluted using the following scheme: • 10 mM------>120 μM------>12 μM------>1.2 μM------>0.12 μM
Twenty-five microliters of each concentration is then added in triplicate to appropriate wells of a 96 well microfluor plate. The final concentration of inhibitor will be a 1:4 dilution after addition of enzyme and substrate. Positive controls (enzyme, no inhibitor) are set up in wells D7–D12 and negative controls (no enzyme, no inhibitors) are set in wells D1–D6.
Collagenase-1 is diluted to 240 ng/ml and […] is then added to appropriate wells of the microfluor plate. Final concentration of collagenase in the assay is 60 ng/ml.
Substrate (DNP-Pro-Cha-Gly-Cys(Me)-His-Ala-Lys(NMA)-NH2) is made as a 5 mM stock in dimethylsulfoxide and then diluted to 20 μM in assay buffer. The assay is initiated by the addition of […] substrate per well of the microfluor plate to give a final concentration of 10 μM.
Fluorescence readings (360 nm excitation, 460 nm emission) are taken at time 0 and then at about 20 minute intervals. The assay is conducted at a temperature of about 20 to about 25° C., preferably about 23° C. with a typical assay time of about 3 hours.
Fluorescence versus time is then plotted for both the blank and collagenase containing samples (data from triplicate determinations is averaged). A time point that provides a good signal (at least five fold over the blank) and that is on a linear part of the curve (usually around 120 minutes) is chosen to determine IC50 values. The zero time is used as a blank for each compound at each concentration and these values are subtracted from the 120 minute data. Data is plotted as inhibitor concentration versus % control (inhibitor fluorescence divided by fluorescence of collagenase alone ×100).

[2] = system: aggrecanase; experiment: Aggrecanase chondrocyte assay (35S-proteoglycan release, IL-1 stimulated); assay type: cell-based, porcine; details: Table 2; aggrecanase chondrocyte assay; read-out: Agg (aggrecanase IC50 class)
Experimental: Aggrecanase Chondrocyte Assay
This assay is used in the invention to measure the potency (IC50s) of compounds for aggrecanase.
Primary porcine chondrocytes from articular joint cartilage are isolated by sequential trypsin and collagenase digestion followed by collagenase digestion overnight and are plated at 2×10^5 cells per well into 48 well plates with 5 μCi/ml ^35S (1000 Ci/mmol) sulphur in type I collagen coated plates. Cells are allowed to incorporate label into their proteoglycan matrix (approximately 1 week) at 37° C., under an atmosphere of 5% CO2.
The night before initiating the assay, chondrocyte monolayers are washed two times in DMEM/1% PSF/G and then allowed to incubate in fresh DMEM/1% FBS overnight.
The following morning chondrocytes are washed once in DMEM/1% PSF/G. The final wash is allowed to sit on the plates in the incubator while making dilutions. Media and dilutions can be made as described in the Table I below.
Plates are labeled and only the interior 24 wells of the plate are used. On one of the plates, several columns are designated as IL-1 (no drug) and Control (no IL-1, no drug). These control columns are periodically counted to monitor 35S-proteoglycan release. Control and IL-1 media are added to wells (450 μl) followed by compound (50 μl) so as to initiate the assay. Plates are incubated at 37° C., with a 5% CO2 atmosphere.
At 40–50% release (when CPM from IL-1 media is 4–5 times control media) as assessed by liquid scintillation counting (LSC) of media samples, the assay is terminated (about 9 to about 12 hours). Media is removed from all wells and placed in scintillation tubes. Scintillate is added and radioactive counts are acquired (LSC). To solubilize cell layers, 500 μL of papain digestion buffer (0.2 M Tris, pH 7.0, 5 mM EDTA, 5 mM DTT, and 1 mg/ml papain) is added to each well. Plates with digestion solution are incubated at 60° C. overnight. The cell layer is removed from the plates the next day and placed in scintillation tubes. Scintillate is then added, and samples counted (LSC).
The percent of released counts from the total present in each well is determined. Averages of the triplicates are made with control background subtracted from each well.

[3] = target: T2, TACE (Homo sapiens, UniProt P78536); experiment: Inhibition of soluble TNF-α production (TACE whole blood assay); assay type: cell-based; details: Table 2, read-out: TACE (IC50 class)
T2 construct: Human mononuclear cells are isolated from anti-coagulated human blood; endogenous in cells; host or cells: human peripheral blood mononuclear cells, LPS stimulated
T2 sequence (P78536 215-824): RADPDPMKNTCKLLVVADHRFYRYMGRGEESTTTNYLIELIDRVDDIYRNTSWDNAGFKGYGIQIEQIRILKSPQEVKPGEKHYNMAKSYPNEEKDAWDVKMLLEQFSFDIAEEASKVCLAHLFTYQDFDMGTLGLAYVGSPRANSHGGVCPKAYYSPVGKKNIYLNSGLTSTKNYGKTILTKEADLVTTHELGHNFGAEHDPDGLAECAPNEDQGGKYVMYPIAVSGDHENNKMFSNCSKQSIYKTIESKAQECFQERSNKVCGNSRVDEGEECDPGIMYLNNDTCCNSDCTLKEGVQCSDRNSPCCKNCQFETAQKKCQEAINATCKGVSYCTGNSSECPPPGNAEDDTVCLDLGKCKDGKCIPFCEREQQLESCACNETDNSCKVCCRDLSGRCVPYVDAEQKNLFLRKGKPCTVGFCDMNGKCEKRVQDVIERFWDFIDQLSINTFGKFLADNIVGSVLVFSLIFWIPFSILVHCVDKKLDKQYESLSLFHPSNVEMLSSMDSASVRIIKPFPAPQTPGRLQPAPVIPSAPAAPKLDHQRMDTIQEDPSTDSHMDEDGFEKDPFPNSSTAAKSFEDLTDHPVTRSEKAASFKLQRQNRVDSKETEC
Experimental: Inhibition of Soluble TNF-α Production (TACE Whole Blood Assay)
This assay is used in the invention to measure the potency (IC50s) of compounds for TACE.
Human mononuclear cells are isolated from anti-coagulated human blood using a one-step Ficoll-hypaque separation technique. (2) The mononuclear cells are washed three times in Hanks balanced salt solution (HBSS) with divalent cations and re-suspended to a density of 2×10^6/ml in HBSS containing 1% BSA.
180 μL of the cell suspension was aliquoted into flat bottom 96 well plates (Costar). Additions of compounds and LPS (100 ng/ml final concentration) gives a final volume of 200 μL. All conditions are performed in triplicate. After about a four hour incubation at about 37° C. in an humidified CO2 incubator, plates are removed and centrifuged (about 10 minutes at approximately 250×g) and the supernatants removed and assayed for TNF-α using the R&D ELISA Kit.

[4] = target: Human recombinant collagenase-3 (Homo sapiens, UniProt P45452); experiment: Inhibition of human collagenase-3 (recombinant collagenase-3 assay); assay type: biochemical; details: Table 2; recombinant collagenase-3 assay; read-out: MMP-13 (IC50 class)
Experimental: Inhibition of Human Collagenase-3 (Recombinant Collagenase-3 Assay)
This assay is used in the invention to measure the potency (IC50s) of compounds for collagenase-3.
Human recombinant collagenase-3 is activated with 2 mM APMA (p-aminophenyl mercuric acetate) for about 2.0 hours, at about 37° C. and is diluted to about 240 ng/ml in assay buffer (50 mM Tris, pH 7.5, 200 mM sodium chloride, 5 mM calcium chloride, […], 0.02% BRIJ-35). Twenty-five micro-liters of diluted enzyme is added per well of a 96 well microfluor plate.
The final concentrations in the assay are 30 μM, 3 μM, 0.3 μM, and 0.03 μM.
Fluorescence readings (360 nm excitation; 450 nm emission) are taken at time 0 and about every 5 minutes for about 1 hour.
Positive controls and negative controls are set up in triplicate as outlined in the collagenase-1 assay. IC50's are determined as per inhibition of human collagenase (collagenase-1).

| IC50 [1] [nM] | IC50 [2] [nM] | IC50 [3] [nM] | IC50 [4] [nM] | Compound |
| --- | --- | --- | --- | --- |
| > 1000 | < 10 | < 10000 | 20 to 200 | Cc1ccccc1COc1ccc(S(=O)(=O)N2CCN(C(=O)CN)[C@@H](C)[C@@H]2C(=O)NO)cc1 [(2R,3S) 1-[4-(2-methyl-benzyloxy)-benzenesulfonyl]-4-aminoacetyl-3-methyl-piperazine-2-carboxylic acidhydroxyamide] |
| > 1000 | < 10 | < 10000 | 10 to 20 | Cc1cc(F)ccc1COc1ccc(S(=O)(=O)N2CC(=O)N[C@@H](C)[C@@H]2C(=O)NO)cc1 [(2R,3S) 1-[4-(4-fluoro-2-methyl-benzyloxy)-benzenesulfonyl]-3-methyl-5-oxo-piperazine-2-carboxylic acidhydroxyamide] |
| 200 to 1000 | 10 to 20 | 10000 to 20000 | < 10 | CNC(=O)N1CCN(S(=O)(=O)c2ccc(OCc3ccc(F)cc3F)cc2)[C@@H](C(=O)NO)[C@@H]1C [(2R,3S) 4-[4-(2,4-difluoro-benzyloxy)-benzenesulfonyl]-3-methyl-4-carboxylic acidmethylamide-piperazine-2-carboxylic acidhydroxyamide] |
| > 1000 | < 10 | < 10000 | 20 to 200 | CCc1ccccc1COc1ccc(S(=O)(=O)N2CCN(C(=O)NC)[C@@H](C)[C@@H]2C(=O)NO)cc1 [(2R,3S) 4-[4-(2-ethyl-benzyloxy)-benzenesulfonyl]-3-methyl-4-carboxylic acidmethylamide-piperazine-2-carboxylic acidhydroxyamide] |
| 200 to 1000 | < 10 | 20000 to 40000 | < 10 | CC1(C)C[C@@H](O)CN(S(=O)(=O)c2ccc(OCc3ccc(Cl)cc3Cl)cc2)[C@H]1C(=O)NO [(2R,5R) 1-[4-(2,4-dichloro-benzyloxy)-benzenesulfonyl]-5-hydroxy-3,3-dimethyl-piperidine-2-carboxylic acidhydroxyamide] |
| 200 to 1000 | 10 to 20 | < 10000 | < 10 | CC1(C)C[C@@H](O)CN(S(=O)(=O)c2ccc(OCc3ccccc3Br)cc2)[C@H]1C(=O)NO [(2R,5R) 1-[4-(2-bromo-benzyloxy)-benzenesulfonyl]-5-hydroxy-3,3-dimethyl-piperidine-2-carboxylic acidhydroxyamide] |
| 200 to 1000 | < 10 | 10000 to 20000 | < 10 | CC1(C)C[C@@H](O)CN(S(=O)(=O)c2ccc(OCc3ccc(F)cc3Cl)cc2)[C@H]1C(=O)NO [(2R,5R) 1-[4-(2-chloro-4-fluoro-benzyloxy)-benzenesulfonyl]-5-hydroxy-3,3-dimethyl-piperidine-2-carboxylic acidhydroxyamide] |
| 200 to 1000 | 10 to 20 | 10000 to 20000 | < 10 | CC1(C)C[C@@H](O)CN(S(=O)(=O)c2ccc(OCc3cc(Cl)ccc3F)cc2)[C@H]1C(=O)NO [(2R,5R) 1-[4-(2-fluoro-5-chloro-benzyloxy)-benzenesulfonyl]-5-hydroxy-3,3-dimethyl-piperidine-2-carboxylic acidhydroxyamide] |
| 200 to 1000 | < 10 | < 10000 | < 10 | Cc1c(F)cccc1COc1ccc(S(=O)(=O)N2C[C@H](O)CC(C)(C)[C@@H]2C(=O)NO)cc1 [(2R,5R) 1-[4-(2-methyl-3-fluoro-benzyloxy)-benzenesulfonyl]-5-hydroxy-3,3-dimethyl-piperidine-2-carboxylic acidhydroxyamide] |
| > 1000 | 10 to 20 | 10000 to 20000 | 20 to 200 | Cc1ccc(Cl)cc1COc1ccc(S(=O)(=O)N2C[C@H](O)CC(C)(C)[C@@H]2C(=O)NO)cc1 [(2R,5R) 1-[4-(2-methyl-5-chloro-benzyloxy)-benzenesulfonyl]-5-hydroxy-3,3-dimethyl-piperidine-2-carboxylic acidhydroxyamide] |
| 200 to 1000 | < 10 | < 10000 | < 10 | Cc1cc(F)ccc1COc1ccc(S(=O)(=O)N2C[C@H](O)CC(C)(C)[C@@H]2C(=O)NO)cc1 [(2R,5R) 1-[4-(4-fluoro-2-methyl-benzyloxy)-benzenesulfonyl]-5-hydroxy-3,3-dimethyl-piperidine-2-carboxylic acidhydroxyamide] |
| 20 to 200 | < 10 | 10000 to 20000 | < 10 | CC1(C)C[C@@H](O)CN(S(=O)(=O)c2ccc(OCc3ccc(F)cc3)cc2)[C@H]1C(=O)NO [(2R,5R) 1-[4-(4-fluoro-benzyloxy)-benzenesulfonyl]-5-hydroxy-3,3-dimethyl-piperidine-2-carboxylic acidhydroxyamide] |
